This is an account of results in US11225505B2, “Antimicrobial polymyxin derivative compounds” (MONASH UNIVERSITY, priority 2015, dated 2022).

In brackets after ≈: the same amount, converted by molar mass. Where a SMILES comes first, the peptide text is derived from it. Bridges are numbered along the chain shown (N, C = ends). [ ]: non-standard residue; d: D form. The star is where a group is joined. X32 = O=C(c1cnc(Cl)c(Cl)c1)*; X15 = O=C(c1ccc(Cl)nc1Cl)*; X1 = O=C(c1ncc(Cl)cc1Cl)*; Dab = NCC[C@H](N)C(=O)O; X3 = O=C(c1cncc(Cl)c1)*; Abu = CC[C@H](N)C(=O)O; Dap = NC[C@H](N)C(=O)O

What all share (format): cell-based
Assay [1] deals with Acinetobacter baumannii ATCC 17978. To be noted: ATCC 17978. The protocol:
(§1) MICs of the lipopeptides (trifluoroacetic acid salt, TFA) were determined by broth microdilution in cation-adjusted Mueller-Hinton broth (CAMHB) (Oxoid Australia, Thebarton, SA, Australia) according to the Clinical and Laboratory Standards Institute protocol (Clinical and Laboratory Standards Institute, Performance standards for antimicrobial susceptibility testing; twentyforth informational supplement M100-S24. Wayne, Pa., 2014). Polymyxin B sulphate was employed as the control. Antimicrobial activity of Compounds 1-104 against polymyxin-susceptible Gram-negative bacteria was examined. The following isolates were examined: Pseudomonas aeruginosa ATCC 27853, Pseudomonas aeruginosa FADDI-PA022*, Pseudomonas aeruginosa FADDI-PA01*, Pseudomonas aeruginosa FADDI-PA038*, Acinetobacter baumannii FADDI-AB034*, Acinetobacter baumannii ATCC 17978, Acinetobacter baumannii FADDI-AB030*, Klebsiella pneumoniae FADDI-KP032, Klebsiella pneumoniae FADDI-KP022*, Klebsiella pneumoniae Kp BM1*, Enterobacter cloacae FADDI-EC006, Enterobacter cloacae FADDI-EC001, and Enterobacter cloacae FADDI-EC003 (* Multi drug-resistant clinical isolates, § New Delhi Metallo-beta-lactamase-1 (NDM-1) producing). The results are illustrated in Tables 4 and 5.

In assay [2] the test system is Acinetobacter baumannii FADDI-AB034. As to conditions: FADDI-AB034. As to the method:
as §1

The test system of assay [3] is Enterobacter cloacae FADDI-EC001. As to conditions: FADDI-EC001. As to the method: as §1
For assay [4], the system named is Enterobacter cloacae FADDI-EC003. As to conditions: FADDI-EC003. The protocol: as §1
In assay [5] the test system is Enterobacter cloacae FADDI-EC006. To be noted: FADDI-EC006. As to the method: as §1
In assay [6] the test system is Klebsiella pneumoniae FADDI-KP022. To be noted: FADDI-KP022. The protocol:
as §1

Assay [7] relates to Klebsiella pneumoniae FADDI-KP032. To be noted: FADDI-KP032. The protocol:
as §1

In assay [8] the test system is Klebsiella pneumoniae Kp BM1. As to conditions: Kp BM1. As to the method: as §1
The test system of assay [9] is Pseudomonas aeruginosa ATCC 27853. To be noted: ATCC 27853. The protocol: as §1
Assay [10] relates to Pseudomonas aeruginosa FADDI-PA01. To be noted: FADDI-. As to the method:
as §1

For assay [11], the system named is Pseudomonas aeruginosa FADDI-PA022. To be noted: FADDI-PA022. The protocol:
as §1

Assay [12] concerns Pseudomonas aeruginosa FADDI-PA038. To be noted: FADDI-PA038. As to the method: as §1
Assay [13] has as its system Acinetobacter baumannii FADDI-AB030. The assay can be described thus: microbe, parasite or virus in culture. To be noted: FADDI-AB030. The protocol:
as §1, with “Antimicrobial activity of Compounds 1-104 against polymyxin-susceptible Gram-negative bacteria was examined.” left out, “5. […]” for “5.”

In the case of `CC[C@@H]1NC(=O)[C@@H](CC(C)C)NC(=O)[C@H](CCN)NC(=O)[C@@H](NC(=O)[C@H](CN)NC(=O)[C@@H](NC(=O)[C@H](CCN)NC(=O)c2cnc(Cl)c(Cl)c2)[C@@H](C)O)CCNC(=O)[C@H]([C@@H](C)O)NC(=O)[C@H](CCN)NC(=O)[C@H](CCN)NC1=O` [Compound 5] (X32-[Dab]T[Dap][Dab][Dab][dL][Abu][Dab][Dab]T; lactam 4-C), the Minimum inhibitory concentration in assay [1] is 1 µg/mL (≈ 0.861 µM); in [2], 0.5 µg/mL (≈ 0.431 µM); in assay [3], 0.25 µg/mL (≈ 0.215 µM); in assay [4], 0.5 µg/mL (≈ 0.431 µM); in assay [5], 1 µg/mL (≈ 0.861 µM); in [6] it was below 0.125 µg/mL. The Minimum inhibitory concentration in assay [7] was 0.25 µg/mL (≈ 0.215 µM); in [8] it was below 0.25 µg/mL; in [9], 1 µg/mL (≈ 0.861 µM); in assay [10], 0.25 µg/mL (≈ 0.215 µM); in [11], 1 µg/mL (≈ 0.861 µM); in assay [12] it was 0.5 µg/mL (≈ 0.431 µM). Further, the Minimum inhibitory concentration in [13] was 0.5 µg/mL (≈ 0.431 µM).

For `CC[C@@H]1NC(=O)[C@@H](CC(C)C)NC(=O)[C@H](CCN)NC(=O)[C@@H](NC(=O)[C@H](CN)NC(=O)[C@@H](NC(=O)[C@H](CCN)NC(=O)c2cncc(Cl)c2)[C@@H](C)O)CCNC(=O)[C@H]([C@@H](C)O)NC(=O)[C@H](CCN)NC(=O)[C@H](CCN)NC1=O` [Compound 6] (X3-[Dab]T[Dap][Dab][Dab][dL][Abu][Dab][Dab]T; lactam 4-C), the Minimum inhibitory concentration in assay [1] was 2 µg/mL (≈ 1.78 µM); in assay [2], 2 µg/mL (≈ 1.78 µM); in [3], 0.25 µg/mL (≈ 0.222 µM); in assay [4] it was below 0.125 µg/mL; in [5], 0.25 µg/mL (≈ 0.222 µM); in [6], below 0.125 µg/mL. In addition, the Minimum inhibitory concentration in assay [7] turned out to be 0.25 µg/mL (≈ 0.222 µM); in assay [8], 0.5 µg/mL (≈ 0.444 µM); in assay [9], 1 µg/mL (≈ 0.888 µM); in assay [10], 0.5 µg/mL (≈ 0.444 µM); in [11], 1 µg/mL (≈ 0.888 µM); in assay [12], 0.5 µg/mL (≈ 0.444 µM). In [13], the Minimum inhibitory concentration was 1 µg/mL (≈ 0.888 µM).

Turning to `CC[C@@H]1NC(=O)[C@@H](CC(C)C)NC(=O)[C@H](CCN)NC(=O)[C@@H](NC(=O)[C@H](CN)NC(=O)[C@@H](NC(=O)[C@H](CCN)NC(=O)c2ccc(Cl)nc2Cl)[C@@H](C)O)CCNC(=O)[C@H]([C@@H](C)O)NC(=O)[C@H](CCN)NC(=O)[C@H](CCN)NC1=O` [Compound 7] (X15-[Dab]T[Dap][Dab][Dab][dL][Abu][Dab][Dab]T; lactam 4-C), the Minimum inhibitory concentration is 1 µg/mL (≈ 0.861 µM) in assay [1]; 2 µg/mL (≈ 1.72 µM) in assay [2]; below 0.125 µg/mL in assay [3]; below 0.125 µg/mL in assay [4]; 0.25 µg/mL (≈ 0.215 µM) in [5]; below 0.125 µg/mL in assay [6]. The Minimum inhibitory concentration in [7] amounted to 1 µg/mL (≈ 0.861 µM); in [8] it was 0.5 µg/mL (≈ 0.431 µM); in [9], 1 µg/mL (≈ 0.861 µM); in assay [10] it was 0.25 µg/mL (≈ 0.215 µM); in assay [11], 1 µg/mL (≈ 0.861 µM); in assay [12], 0.5 µg/mL (≈ 0.431 µM). In addition, the Minimum inhibitory concentration in assay [13] stood at 0.5 µg/mL (≈ 0.431 µM).

In the case of `CC(C)C[C@H]1NC(=O)[C@H](CCN)NC(=O)[C@@H](NC(=O)[C@H](CN)NC(=O)[C@@H](NC(=O)[C@H](CCN)NC(=O)c2ncc(Cl)cc2Cl)[C@@H](C)O)CCNC(=O)[C@H]([C@@H](C)O)NC(=O)[C@H](CCN)NC(=O)[C@H](CCN)NC(=O)[C@H]([C@@H](C)O)NC1=O` [Compound 8] (X1-[Dab]T[Dap][Dab][Dab][dL]T[Dab][Dab]T; lactam 4-C), the Minimum inhibitory concentration is 4 µg/mL (≈ 3.4 µM) in [1]; 4 µg/mL (≈ 3.4 µM) in assay [2]; below 0.125 µg/mL in [3]; 0.25 µg/mL (≈ 0.212 µM) in [4]; 0.25 µg/mL (≈ 0.212 µM) in assay [5]; below 0.125 µg/mL in assay [6]. For the same molecule, the Minimum inhibitory concentration in [7] was found to be 0.5 µg/mL (≈ 0.425 µM); in assay [8], 0.5 µg/mL (≈ 0.425 µM); in assay [9], 0.25 µg/mL (≈ 0.212 µM); in assay [10] it was 0.5 µg/mL (≈ 0.425 µM); in assay [11], 0.5 µg/mL (≈ 0.425 µM); in assay [12], 0.5 µg/mL (≈ 0.425 µM). The same molecule gave a Minimum inhibitory concentration in assay [13] of 4 µg/mL (≈ 3.4 µM).

`C[C@@H]1NC(=O)[C@@H](Cc2ccccc2)NC(=O)[C@H](CCN)NC(=O)[C@@H](NC(=O)[C@H](CN)NC(=O)[C@@H](NC(=O)[C@H](CCN)NC(=O)c2ncc(Cl)cc2Cl)[C@@H](C)O)CCNC(=O)[C@H]([C@@H](C)O)NC(=O)[C@H](CCN)NC(=O)[C@H](CCN)NC1=O` [Compound 9] (X1-[Dab]T[Dap][Dab][Dab][dF]A[Dab][Dab]T; lactam 4-C): the Minimum inhibitory concentration in [1] was 2 µg/mL (≈ 1.69 µM); in [2] it was 2 µg/mL (≈ 1.69 µM); in assay [3], below 0.125 µg/mL; in [4], below 0.125 µg/mL; in assay [5], 1 µg/mL (≈ 0.847 µM); in assay [6], below 0.125 µg/mL. For the same molecule, the Minimum inhibitory concentration came out at 0.25 µg/mL (≈ 0.212 µM) in [7]; 0.25 µg/mL (≈ 0.212 µM) in assay [8]; 0.25 µg/mL (≈ 0.212 µM) in assay [9]; 0.25 µg/mL (≈ 0.212 µM) in assay [10]; 0.25 µg/mL (≈ 0.212 µM) in assay [11]; 0.5 µg/mL (≈ 0.423 µM) in [12]. The Minimum inhibitory concentration in assay [13] is 2 µg/mL (≈ 1.69 µM).

On to `CC(C)C[C@H]1NC(=O)[C@H](CCN)NC(=O)[C@@H](NC(=O)[C@H](CN)NC(=O)[C@@H](NC(=O)[C@H](CCN)NC(=O)c2ncc(Cl)cc2Cl)[C@@H](C)O)CCNC(=O)[C@H]([C@@H](C)O)NC(=O)[C@H](CCN)NC(=O)[C@H](CCN)NC(=O)[C@H](C)NC1=O` [Compound 10] (X1-[Dab]T[Dap][Dab][Dab][dL]A[Dab][Dab]T; lactam 4-C), for which the Minimum inhibitory concentration in [1] turned out to be 4 µg/mL (≈ 3.49 µM); in assay [2], 4 µg/mL (≈ 3.49 µM); in [3], 0.25 µg/mL (≈ 0.218 µM); in assay [4] it was 0.25 µg/mL (≈ 0.218 µM); in assay [5], 0.5 µg/mL (≈ 0.436 µM); in assay [6], 0.25 µg/mL (≈ 0.218 µM). The Minimum inhibitory concentration is 0.5 µg/mL (≈ 0.436 µM) in [7]; 4 µg/mL (≈ 3.49 µM) in [8]; 0.25 µg/mL (≈ 0.218 µM) in [9]; 0.5 µg/mL (≈ 0.436 µM) in assay [10]; 0.5 µg/mL (≈ 0.436 µM) in assay [11]; 1 µg/mL (≈ 0.872 µM) in assay [12]. This molecule came in with a Minimum inhibitory concentration in [13] of 8 µg/mL (≈ 6.97 µM).
